For this experiment, the system named is human osteoblast-like cells, MG-63. Put plainly: Cell binding to complexed acidic phospholipid collagen composite (cell adherence and proliferation). It is filed as cell-based. The settings on record: MG-63 cell cultures; composite sterilized under UV light. The source says: Before usage, the prepared composite was sterilized under UV light.

For fibronectin, the “cell adherence and proliferation” value is “some cells remain in clumps and there appeared to be fewer cells that adhered compared to those exposed to either of the composite formulations”.

For the origin of these results see patent US20040076663A1, “Complexed-acidic-phospholipid-collagen composites for bone induction” (priority 2002, published 2004).
